Legend:
[1] = biological target: T1, Rat Striatal Nicotinic Receptors (Rattus norvegicus, UniProt P09483+P12390); assay: Inhibition of [3H]Nicotine (NIC) binding assay, rat striatal membranes; details: % inhibition at 100 nM concentration of analog, 3 nM [3H]NIC
T1 construct: from tissue; host or cells: rat striatal membranes
Description: Striata from two rats were dissected, pooled, and homogenized with a Tekmar polytron in 10 vol of ice-cold modified Krebs-HEPES buffer (20 mM HEPES, 118 mM NaCl, 4.8 mM, KCl, 2.5 mM CaCl2, 1.2 mM MgSO4, adjusted to pH 7.5). The homogenates were incubated at 37° C. for 5 minutes and centrifuged at 15,000 g for 20 minutes. The pellet was resuspended in 10 volumes of ice-cold MilliQ water, incubated for 5 minutes at 37° C., and centrifuged at 15,000 g for 20 minutes. The second pellet was then resuspended in 10 volumes of fresh ice-cold 10% Krebs-HEPES buffer, incubated at 37° C., and centrifuged at 15,000 g for 20 minutes. The latter sequence of resuspension, incubation and centrifugation was repeated. The pellet was frozen under fresh 10% Krebs-HEPES buffer and stored at −40° C. until assay. Upon assay, the pellet was resuspended in Krebs-HEPES buffer, incubated at 37° C. for 5 minutes, and centrifuged at 15,000 g for 20 minutes. The final pellet was resuspended in 3.6 mL ice-cold MilliQ water which provided for approximately 200 μg protein per 100 μL aliquot. Competition assays were performed in duplicate in a final volume of 200 μL Krebs-HEPES buffer containing […] Tris buffer (pH 7.5 at 4° C.). Reactions were initiated by addition of 100 μL of membrane suspension to 3 nM [^3H]NIC (50 μL) and one of at least nine concentrations of analog (50 μL). After a 90 minute incubation at 4° C., reactions were terminated by dilution of the samples with 3 mL of ice-cold Krebs-HEPES buffer followed immediately by filtration through Whatman GF/B glass fiber filters (presoaked in 0.5% polyethyleneimine) using a Brandel Cell Harvester. Filters were rinsed three times with 3 mL of ice-cold Krebs-HEPES buffer, transferred to scintillation vials, and 5 mL scintillation cocktail (Research Products international Corp., Mt. Prospect, Ill.) added. Nonspecific binding determined in triplicate was defined as binding in the presence of 10 μM NIC. Binding parameters were determined using the weighted, least squares non-linear regression. The tris-quaternary ammonium salts were evaluated for their ability to displace [^3H]NIC binding from rat striatal membranes.
Data are % inhibition at 100 nM concentration of analog for at least 1-3 independent experiments. Specific binding in the [^3H]NIC binding assay is calculated at the difference between the total binding of [^3H]NIC and nonspecific binding in the presence of 10 μM cold nicotine. Specific binding for the [^3H]MLA binding assay is calculated as the difference between the total binding of 2.5 nM [^3H]MLA to the receptors alone and its nonspecific binding in the presence of 1 μM cold MLA. Analog-induced inhibition of nicotine-evoked [^3H]DA release is calculated as a percent of that in the absence of analog.

[2] = biological target: T2, α7-type neuronal nicotinic acetylcholine receptors (Rattus norvegicus, UniProt Q05941); assay: Inhibition of [3H]Methyllycaconitine (MLA) binding assay, rat brain membranes; details: % inhibition at 100 nM concentration of analog; rat brain membranes; 2.5 nM [3H]MLA; read-out: Inhibition of [3H]MLA binding
T2 construct: from tissue; host or cells: rat brain membranes (whole brain without cortex, striatum and cerebellum)
T2 sequence (Q05941 23-502): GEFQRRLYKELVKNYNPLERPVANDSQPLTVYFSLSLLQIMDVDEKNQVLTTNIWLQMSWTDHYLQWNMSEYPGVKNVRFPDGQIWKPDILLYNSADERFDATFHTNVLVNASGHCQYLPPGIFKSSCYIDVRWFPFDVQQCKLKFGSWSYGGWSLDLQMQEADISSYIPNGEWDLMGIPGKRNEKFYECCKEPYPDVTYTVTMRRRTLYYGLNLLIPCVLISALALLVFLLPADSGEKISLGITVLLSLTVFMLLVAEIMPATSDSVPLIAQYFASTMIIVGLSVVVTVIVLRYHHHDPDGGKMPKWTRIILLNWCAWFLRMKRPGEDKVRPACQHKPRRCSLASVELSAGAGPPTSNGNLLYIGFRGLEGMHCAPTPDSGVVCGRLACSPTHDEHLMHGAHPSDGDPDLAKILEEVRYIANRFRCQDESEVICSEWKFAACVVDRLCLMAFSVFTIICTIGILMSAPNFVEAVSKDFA

T1 sequence (P09483 31-630): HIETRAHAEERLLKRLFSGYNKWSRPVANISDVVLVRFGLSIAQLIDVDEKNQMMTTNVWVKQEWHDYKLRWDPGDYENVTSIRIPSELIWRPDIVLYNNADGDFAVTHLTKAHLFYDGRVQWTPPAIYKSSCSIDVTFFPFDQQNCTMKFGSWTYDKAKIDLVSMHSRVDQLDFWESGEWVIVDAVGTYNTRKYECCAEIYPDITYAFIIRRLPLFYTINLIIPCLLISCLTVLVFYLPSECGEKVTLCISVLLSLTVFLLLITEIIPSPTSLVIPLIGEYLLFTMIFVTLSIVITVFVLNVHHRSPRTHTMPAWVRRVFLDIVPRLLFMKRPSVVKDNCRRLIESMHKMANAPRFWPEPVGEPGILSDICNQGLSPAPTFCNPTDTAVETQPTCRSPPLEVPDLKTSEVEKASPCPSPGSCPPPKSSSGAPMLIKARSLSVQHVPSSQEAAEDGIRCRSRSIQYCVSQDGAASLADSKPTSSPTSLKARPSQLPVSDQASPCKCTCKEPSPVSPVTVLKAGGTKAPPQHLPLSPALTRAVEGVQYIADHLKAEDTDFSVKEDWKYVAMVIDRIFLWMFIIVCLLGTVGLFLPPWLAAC
T1 sequence (P12390 25-500): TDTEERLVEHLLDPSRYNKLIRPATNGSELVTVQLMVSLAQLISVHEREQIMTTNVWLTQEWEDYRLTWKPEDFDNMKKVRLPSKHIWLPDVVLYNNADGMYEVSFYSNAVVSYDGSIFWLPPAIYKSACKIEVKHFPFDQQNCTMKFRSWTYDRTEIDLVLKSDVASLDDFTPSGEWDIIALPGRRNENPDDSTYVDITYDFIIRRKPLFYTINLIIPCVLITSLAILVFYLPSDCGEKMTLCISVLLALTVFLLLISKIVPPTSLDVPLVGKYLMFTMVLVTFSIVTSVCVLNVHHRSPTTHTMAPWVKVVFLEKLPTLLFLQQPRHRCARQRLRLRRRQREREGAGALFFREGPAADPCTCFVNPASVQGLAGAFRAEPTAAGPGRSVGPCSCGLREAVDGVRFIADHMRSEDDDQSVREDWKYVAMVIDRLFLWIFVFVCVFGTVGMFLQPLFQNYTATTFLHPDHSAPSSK

CN1CCC[C@H]1c1ccc[n+](CCCC#Cc2cc(C#CCCC[n+]3cccc([C@@H]4CCCN4C)c3)cc(C#CCCC[n+]3cccc([C@@H]4CCCN4C)c3)c2)c1 [GZ551B, 1,3,5-tris-{5-[3-(1-methyl-2-S-pyrrolidinyl)pyridinium]-pent-1-ynyl}-benzene tribromide]
inhibition at 0.1 µM [1]: 44 ± 3.1%
inhibition at 0.1 µM [2]: 4.2 ± 2.2%

CCCCc1ccc[n+](CCCC#Cc2cc(C#CCCC[n+]3cccc(CCCC)c3)cc(C#CCCC[n+]3cccc(CCCC)c3)c2)c1 [GZ551A, 1,3,5-tris-[5-(3-butyl-pyridinium)-pent-1-ynyl]-benzene tribromide]
inhibition at 0.1 µM [1]: 6.8 ± 2%
inhibition at 0.1 µM [2]: 30 ± 2%

CN1CCC[C@H]1c1ccc[n+](CCCCCc2cc(CCCCC[n+]3cccc([C@@H]4CCCN4C)c3)cc(CCCCC[n+]3cccc([C@@H]4CCCN4C)c3)c2)c1 [GZ558C, 1,3,5-tris-{5-[3-(1-methyl-2-S-pyrrolidinyl)pyridinium]-pentyl}-benzene tribromide]
inhibition at 0.1 µM [1]: 81 ± 2.3%
inhibition at 0.1 µM [2]: 7.9 ± 7.1%

— patent publication US8940774B2, “Tris-Quaternary Ammonium Salts and Methods for Modulating Neuronal Nicotinic Acetylcholine Receptors” (University of Kentucky Research Foundation, priority 2005, dated 2015)
